This data set in a line: Kinetics of MMF-release during incubation in intestinal fluid of the minipig (LC-MS quantification of MMF). In kind it is in vitro ADME, Göttingen SPF minipig. Conditions: diluted small intestinal fluid (1/20 v/v with 50 mM KH2PO4, pH 6.8), 37° C., samples at 0-120 min; reference DMF; FIG. 1 / FIG. 2. Here is the method: Investigation and Comparision of the Kinetics of MMF-Release of the Different Compounds of the Present Invention and DMF During Incubation in Intestinal Fluid of the Minipig
Intestinal fluid samples were prepared at CiToxLAB Scantox A/S. The samples were taken from 1 female Göttingen SPF minipig from CiToxLAB Scantox A/S standard stock, originally obtained from Ellegaard Göttingen Minipigs A/S, DK-4261 Dalmose, Denmark. The minipig was 10 months old and the body weight was 21 kg. The minipig was identified by an individual number tagged to the pinna of one ear (animal number is documented in the raw data).
The minipig was fasted for approximately 28 hours before sampling of intestinal fluid. On the day of sampling, the minipig was weighed and anaesthetised by an intramuscular injection in the neck or in the left hind leg (about 0.3 ml per kg body weight) of a mixture of Zoletil 50 Vet., Virbac, France (125 mg tiletamine and 125 mg zolazepam), Rompun Vet., Bayer, Germany (20 mg xylazine/ml, 6.5 ml), Ketaminol Vet., Veterinaria AG, Switzerland (100 mg ketamine/ml, 1.5 ml) and Methadon DAK, Nycomed Danmark, Denmark (10 mg methadon/ml, 2.5 ml).
Intestinal fluid was obtained by flushing one jejunal segment, measuring 30.2 cm, with saline. Intestinal fluid together with saline used for flushing was placed in centrifuge tubes. All samples were frozen at −70° C. and shipped on dry ice to the Sponsor for further use.
2.1.1. Analytical Instrument • Instrument: Acquity UPLC system coupled with a TQ detector (triple quadruple mass spectrometer)
Calibration solutions were prepared by serial dilution of SSMMF; diluted small intestinal fluid (diluted by 1/20 v/v with 50 mM KH2PO4, pH 6.8; (dil IF) was used as matrix. The dilution scheme is given below:
50 μl sample (calibration solution or sample of an incubation experiment with MMF prodrugs) was mixed with 50 μl WSISTD, 20 μl formic acid and 100 μl acetonitrile. This mixture was vortexed for 15 sec and centrifuged (13,000 rpm, 3 min). Thereafter, 4 μl of the supernatant were subjected to LC-MS analysis.
2.2. Incubation Experiments with DMF (Reference) and Compounds of the Invention
Stock solutions were prepared in DMSO. Concentrations in stock solutions were 5.00, 2.50 and 1.67 mmol for compounds with one, two and three molar MMF equivalents.
In a HPLC glass vial, 8 μl of stock solution were mixed with 792 μl dil IF and the mixture was stirred (250 rpm) in a water bath (T=37° C.).
Immediately after mixing as well as at t=15 min, 30 min, 60 min, 90 min and 120 min, 50 μl were withdrawn and prepared for LC-MS analysis as described in chapter. 2.1.3.
Incubations were continued and in case the result of analysis of the 120 min indicated the presence of remaining intact MMF prodrug, additional samples were taken (t=360 or 420 min and at 1,260 or 1,320 min) and analysed.
The concentration/peak area ratio data pairs were subjected to regression analysis with 1/x weighting and the resulting calibration equation was used to quantify the MMF content in incubation samples.
Turning to `CCOC(=O)[C@H](OC(=O)/C=C/C(=O)OC)[C@@H](OC(=O)/C=C/C(=O)OC)C(=O)OCC` [Example 1, (E)-But-2-enedioic acid (1R,2R)-1,2-bis-ethoxy-carbonyl-2-((E)-3-methoxycarbonyl-acryloyloxy)-ethyl ester methyl ester], the “hydrolyzation (to MMF) compared to DMF” value was “modified hydrolyzation compared to DMF” and the “release kinetics (MMF release) compared to DMF” value is on record as “significantly slower than the one of DMF”.
Regarding `COC(=O)/C=C/C(=O)O[C@@H](C(=O)OC(C)C)[C@@H](OC(=O)/C=C/C(=O)OC)C(=O)OC(C)C` [Example 2, (E)-But-2-enedioic acid (1R,2R)-1,2-bis-isopropoxycarbonyl-2-((E)-3-methoxycarbonyl-acryloyloxy)-ethyl ester methyl ester], the “hydrolyzation (to MMF) compared to DMF” value is recorded as “modified hydrolyzation compared to DMF” and the “release kinetics (MMF release) compared to DMF” value was “significantly slower than the one of DMF”.
For the compound `COC(=O)/C=C/C(=O)OCCN(CCO)CCOC(=O)/C=C/C(=O)OC` [Example 3, (2-Hydroxy-ethyl)-bis-[2-((E)-3-methoxycarbonyl-acryloyloxy)-ethyl]-amine], the “hydrolyzation (to MMF) compared to DMF” value is given as “modified hydrolyzation compared to DMF” and the “release kinetics (MMF release) compared to DMF” value is “significantly slower than the one of DMF”.

These data come from patent US9593068B2, “Derivatives of tartaric acid” (RATIOPHARM GMBH, priority 2013, dated 2017).
